From patent US20250161313A1, “A METHOD FOR THE TREATMENT OF NEUROPATHY” (INSTITUT NATIONAL DE LA SANTÉ ET DE LA RECHERCHE MÉDICALE, priority 2022, published 2025)

Legend:
C57B16/J mice [1] = experiment: Mechanical pain sensitivity (von Frey filaments) in sub-chronic cisplatin model; type: in vivo; conditions: KW-6002 3 mg/kg i.p. daily day -5 to day 7; cisplatin 3 mg/kg i.p. for 6 days; vs. cisplatin; FIG. 1A
Experimental: (§1) Animal experiments were adapted from 63-64. Animal procedures were performed in 8 to 10 weeks old male C57B16/J mice (Janvier Labs except for pain experiments, Jackson lab). Mice were fed a laboratory standard diet with water and food ad libitum and were kept under constant environmental conditions with a 12-hour light-dark cycle. Istradefylline (KW-6002; Tocris) was dissolved in a carrier solution consisting in 15% DMSO, 15% cremophor (Sigma), 70% saline solution (vehicle). Cisplatin (Accord Healthcare) was dissolved in saline solution. Neuropathy resulting from of sub-chronic cisplatin was evaluated following six daily i.p. injections of cisplatin (3 mg/kg) starting at day 0 and mice were sacrificed 72h after the last injection of cisplatin (day 8). KW-6002 was administered daily i.p. from day −5 to day 7 (FIG. 2).
(§2) Mechanical pain sensitivity, a classical read out for CIPN in rodents, was assessed using von Frey filaments as previously described (65-66). Briefly, mice were placed in opaque boxes (10×10×10 cm). After a 30 min habituation period, von Frey filaments were applied, and the paw withdrawal threshold was calculated using the “up & down” method. Behavioral testing was performed by experimenter blinded to treatment and genotype.

[2] = tested on: Il6, Tnf, Il1b and Ccl2 expression in DRG and spinal cord; experiment: mRNA levels of cytokines in spinal cord and DRG (quantitative RT-PCR), sub-chronic cisplatin model; type: in vivo, mice; conditions: 8 days after start of cisplatin treatment, vs. cisplatin
Experimental: as §1
Lumbar dorsal root ganglion (DRG) and spinal cord tissues were quickly dissected and snap-frozen in liquid nitrogen.
For DRG and spinal cord tissues, total RNA was extracted with phenol/chloroform and subsequently precipitated in isopropanol as described previously (71).
(§3) Reverse transcription was performed on 1 μg of RNA using high-capacity cDNA reverse transcription kit (Thermo Fisher), according the manufacturer's recommendation. Real time PCR was performed on a StepOne device using Taqman Gene Expression Master Mix (Thermo Fisher), following manufacturer's recommendations. Expression levels of the following genes were evaluated using comparative CT method (2-deltaCT): Tumor Necrosis Factor alpha (Tnfa, Assay ID Mm00443258_m1), Interleukin-6 (Il6, Assay ID Mm00446190_m1), Il1b (assay ID Mm00434228_m1); chemokine (C-C motif) ligand 2 (Ccl2, assay ID Mm00441242_m1). Transcript levels of PPIA (Mm02342430_m1) were used as endogenous control.

[3] = tested on: KIM-1, Tnf and Il6 expression; experiment: Cisplatin-induced nephrotoxicity markers (mRNA) in mEERL tumor-bearing mice; type: in vivo; conditions: cisplatin plus KW6002 vs. cisplatin
Experimental: (§4) We used a validated murine model of HPV+ oropharyngeal squamous cell carcinoma as previously described (noncommercial) (80). This model consists of oropharyngeal epithelial cells from C57Bl/6 male mice that stably express the HPV16 viral oncogenes E6 and E7, H-Ras, and luciferase (mEERL cells). mEERL cells were grown in a T75 flask until confluent, after which cells were trypsinized and harvested, washed 3 times with sterile PBS, and resuspended in 1 mL sterile PBS to the appropriate concentration. Mice were injected s.c. into the right flank with 20 μL solution containing either 1,000,000 mEERL cells or PBS (vehicle). The day of mEERL cell injection is indicated as day −14. Tumor volume was monitored using Vernier digital calipers. When the tumor volume reached 100 mm3, the mice were randomly ascribed to 1 of the 3 experimental groups (vehicle; cisplatin; or cisplatin plus KW6002).
as §3

C57B16/J mice [4] = experiment: Mechanical sensitivity (von Frey hairs) in mEERL tumor-bearing mice; type: in vivo; conditions: cisplatin plus KW6002 vs. cisplatin, FIG. 3D
Experimental: as §4, §2

mEERL cells = experiment: Tumor size in mEERL syngeneic in vivo tumor model; conditions: mEERL tumor-bearing mice; cisplatin plus KW6002 vs. cisplatin; FIG. 3E
Experimental: as §4

Which “cisplatin-induced pain hypersensitivity (mechanical sensitivity, von Frey)” value (C57B16/J mice [1]) does the source give for CCn1c(=O)c2c(nc(/C=C/c3ccc(OC)c(OC)c3)n2C)n(CC)c1=O [KW-6002, 8-[(E)-2-(3,4-dimethoxyphenyl)vinyl]-1,3-diethyl-7-methyl-3,7-dihydro-1H-purine-2,6-dione] here?
Its value is “significantly mitigated pain hypersensitivity”.

And the “Tnf mRNA level in spinal cord” value ([2]; KW-6002 3 mg/kg, FIG. 1C)?
Its value is “significantly downregulated”.

And the “Il6 mRNA level in DRG” value ([2]; KW-6002 3 mg/kg, FIG. 1D)?
Its value is “significantly downregulated”.

And the “Tnf mRNA level in DRG” value ([2]; KW-6002 3 mg/kg, FIG. 1E)?
The value was “significantly downregulated”.

And the “Il 1b mRNA level in DRG” value ([2]; FIG. 1F)?
The value was “significantly reversed the upregulation”.

And the “Ccl2 mRNA level in DRG” value ([2]; FIG. 1G)?
Its value is “significantly reversed the upregulation”.

What about the “indicator of renal toxicity KIM-1 (mRNA) induced by cisplatin” value ([3]; FIG. 3A) of the same molecule?
The value was “limited”.

And the “expression of inflammatory cytokine Tnf induced by cisplatin” value ([3]; FIG. 3B)?
Its value is “limited”.

What about the “expression of inflammatory cytokine Il6 induced by cisplatin” value ([3]; FIG. 3C) of the same molecule?
The value was “limited”.

What about the “cisplatin-induced pain hypersensitivity (von Frey)” value (C57B16/J mice [4]) of the same molecule?
The value was “alleviated”.

What about the “tumor control by cisplatin (absolute tumor size)” value (mEERL cells) of the same molecule?
The value was “significantly potentiated”.
